Columns and labels:
[1] = system: phospholipase DM derived from the Nocardiopsis strain (Nocardiopsis sp. No. 779, FERM-P No. 6133; BP 512); test: Influences of various substances on enzyme activity (choline oxidase method, egg-yolk lecithin substrate); format: biochemical; conditions: substance at 1 mM in the enzyme reaction system, added instead of the aqueous calcium chloride solution; lecithin emulsion, Tris-HCl pH 7.2, 37° C., 20 minutes
Description: (§1) The enzyme activity of the phospholipase DM utilized in the process of this invention is determined by measuring the amount of a base which is formed when the phospholipase DM acts on the substrate glycerophospholipid to decompose the ester linkage between phosphoric acid and the nitrogen-containing base. Unless otherwise indicated, the activity of phospholipase DM is measured by the choline oxidase method to be described hereinafter.
(§2) Distilled water (0.15 ml), 0.1 ml of 0.2M Tris-HCl buffer (pH 7.2) and 0.05 ml of 0.1M aqueous calcium chloride solution are mixed with 0.1 ml of 1% emulsion of purified lecithin from egg yolk (an emulsion of 0.1 g of lecithin, 1 ml of ethyl ether and 10 ml of distilled water obtained by ultrasonication). To the mixture is added 0.1 ml of an enzyme solution and reacted at 37° C. for 20 minutes. Then, 0.2 ml of 1M Tris-HCl buffer (pH 8.0) containing 50 mM disodium ethylenediamine tetraacetate, and immediately then, the mixture is boiled for 5 minutes, followed by completely stopping the reaction. Then, 4 ml of a solution obtained by dissolving a choline color-forming agent contained in a kit of a reagent for choline esterase measurement (produced by Nippon Shoji Co., Ltd.) in a color dissolving liquid is added, and reacted at 37° C. for 20 minutes. Then, the absorbance of the reaction solution at 500 nm is measured.
(§3) As a control, the absorbance of the product obtained by the same procedure as above except that an enzyme solution previously deactivated by heat is used.
(§4) The activity of the enzyme to liberate 1 micromole of choline per minute is defined as one unit.
(§5) In the method of measuring the activity of the enzyme described hereinabove, 0.05 ml of an aqueous solution of each of various substances is added instead of the aqueous calcium chloride solution so that its concentration in the enzyme reaction system becomes 1 mM. The activity of the enzyme is then measured. The activity of the enzyme at the time of adding water is taken as 100, and the relative activity of the enzyme is determined.

[2] = system: phospholipase DM derived from the Actinomadura strain (Actinomadura sp. No. 362, FERM-P No. 6132; BP 511); test: as above; format: biochemical; conditions: substance at 1 mM in the enzyme reaction system, added instead of the aqueous calcium chloride solution; lecithin emulsion, Tris-HCl pH 7.2, 37° C., 20 minutes
Description: as §1, §2, §3, §4, §5

| SMILES | influence on the activity of the enzyme (relative activity, activity at the time of adding water taken as 100) [1] | influence on the activity of the enzyme (relative activity, activity at the time of adding water taken as 100) [2] |
| --- | --- | --- |
| CCO [ethanol] | activating action | activating action |
| CC(C)O [isopropanol] | activating action | activating action |
| CC(C)(C)O [t-butanol] | activating action | activating action |
